Test results: DBAASP
Converted amounts (≈) assume the structure as drawn.

Key:
Assay in all cases: ≥ marks a high value that may be exact or a test limit, other limits are often not marked, values filed in µg/mL are converted to µM
[1] = test system: Bacillus subtilis KCTC 3068
[2] = test system: Escherichia coli KCTC 1682
[3] = test system: Staphylococcus aureus KCTC 1621
[4] = test system: Staphylococcus epidermidis KCTC 1917
[5] = test system: Pseudomonas aeruginosa KCTC 1637
[6] = test system: Salmonella typhimurium KCTC 1926
[7] = test system: Staphylococcus aureus ATCC 25923
[8] = test system: Escherichia coli ATCC 25726
[9] = test system: Pseudomonas aeruginosa CMCCB 10104
[10] = test system: Candida albicans ATCC 2002
[11] = test system: Escherichia coli ATCC 25922
[12] = test system: Staphylococcus epidermidis C621
[13] = test system: Bacillus subtilis ATCC 6633
Escherichia coli UB1005 = test system: Escherichia coli UB1005
[14] = test system: Enterococcus faecalis ATCC 29212
[15] = test system: Pseudomonas aeruginosa ATCC 27853

| Compound | MIC [1] | MIC [2] | MIC [3] | MIC [4] | MIC [5] | MIC [6] | MIC [7] | MIC [9] | MIC [10] | MIC [11] | further results |
| --- | --- | --- | --- | --- | --- | --- | --- | --- | --- | --- | --- |
| CC[C@H](C)[C@H](N)C(=O)N[C@@H](CC(C)C)C(=O)N[C@@H](CCCCN)C(=O)N[C@@H](Cc1c[nH]c2ccccc12)C(=O)N[C@@H](CCCCN)C(=O)N[C@@H](Cc1c[nH]c2ccccc12)C(=O)N[C@@H](CCCCN)C(=O)N[C@@H](Cc1c[nH]c2ccccc12)C(=O)N[C@@H](Cc1c[nH]c2ccccc12)C(=O)N1CCC[C@H]1C(=O)N[C@@H](Cc1c[nH]c2ccccc12)C(=O)N[C@@H](CCCN=C(N)N)C(=O)N[C@@H](CCCN=C(N)N)C(N)=O [ILKWKWKWWPWRR] | 5.08 µM (≈ 10 µg/mL) | 5.08 µM (≈ 10 µg/mL) | 5.08 µM (≈ 10 µg/mL) | 5.08 µM (≈ 10 µg/mL) | 5.08 µM (≈ 10 µg/mL) | 5.08 µM (≈ 10 µg/mL) |  |  |  |  |  |
| CC[C@H](C)[C@H](NC(=O)[C@H](CC(C)C)NC(=O)[C@H](CCCCN)NC(=O)[C@@H](NC(=O)[C@@H](NC(=O)[C@H](CCCN=C(N)N)NC(=O)[C@@H](N)CC(C)C)[C@@H](C)CC)C(C)C)C(=O)N[C@@H](CC(C)C)C(=O)N[C@@H](CCCCN)C(=O)N[C@@H](Cc1c[nH]c2ccccc12)C(=O)N[C@@H](CC(C)C)C(=O)N[C@@H](CCCN=C(N)N)C(N)=O [LRIVKLILKWLR] | 8 µM (≈ 12.4 µg/mL) | 16 µM (≈ 24.8 µg/mL) | 4 µM (≈ 6.2 µg/mL) | 2 µM (≈ 3.1 µg/mL) | 16 µM (≈ 24.8 µg/mL) | 4 µM (≈ 6.2 µg/mL) |  |  |  |  |  |
| CC[C@H](C)[C@H](NC(=O)[C@@H]1CCCN1C(=O)[C@H](CC(C)C)NC(=O)[C@@H](N)Cc1ccccc1)C(=O)N[C@@H](CC(C)C)C(=O)NCC(=O)N[C@@H](CC(N)=O)C(=O)N[C@@H](CC(C)C)C(=O)N[C@@H](CC(C)C)C(=O)N[C@@H](CO)C(=O)NCC(=O)N[C@@H](CC(C)C)C(=O)N[C@@H](CC(C)C)C(N)=O [FLPILGNLLSGLL] |  |  |  |  |  |  | 50 µM (≈ 68.4 µg/mL) |  |  |  | MIC [8]: ≥ 100 µM |
| CC[C@H](C)[C@H](N)C(=O)N[C@@H](CC(C)C)C(=O)N[C@@H](CCCCN)C(=O)N[C@@H](Cc1c[nH]c2ccccc12)C(=O)N[C@@H](CCCCN)C(=O)N[C@@H](Cc1c[nH]c2ccccc12)C(=O)N1CCC[C@H]1C(=O)N[C@@H](Cc1c[nH]c2ccccc12)C(=O)N[C@@H](Cc1c[nH]c2ccccc12)C(=O)N[C@@H](CCCCN)C(=O)N[C@@H](Cc1c[nH]c2ccccc12)C(=O)N[C@@H](CCCN=C(N)N)C(=O)N[C@@H](CCCN=C(N)N)C(N)=O [ILKWKWPWWKWRR] | 2.54 µM (≈ 5 µg/mL) | 5.08 µM (≈ 10 µg/mL) | 2.54 µM (≈ 5 µg/mL) | 5.08 µM (≈ 10 µg/mL) | 5.08 µM (≈ 10 µg/mL) | 5.08 µM (≈ 10 µg/mL) |  |  |  |  |  |
| CC[C@H](C)[C@H](NC(=O)[C@H](CCC(=O)O)NC(=O)[C@H](CO)NC(=O)[C@@H](NC(=O)[C@H](CC(C)C)NC(=O)[C@H](C)NC(=O)[C@H](CCC(N)=O)NC(=O)CNC(=O)[C@H](Cc1ccccc1)NC(=O)[C@H](CCCCN)NC(=O)[C@H](CCCCN)NC(=O)[C@H](C)NC(=O)[C@H](CO)NC(=O)[C@H](Cc1cnc[nH]1)NC(=O)[C@H](CC(C)C)NC(=O)[C@H](Cc1ccccc1)NC(=O)[C@H](CCCCN)NC(=O)CNC(=O)[C@@H](NC(=O)CN)C(C)C)C(C)C)C(=O)N[C@@H](CCSC)C(=O)N[C@@H](CCCCN)C(=O)N[C@@H](CO)C(=O)O [GVGKFLHSAKKFGQALVSEIMKS] |  |  |  |  |  |  | > 100 µM |  |  |  | MIC [8]: ≥ 50 µM |
| CC[C@H](C)[C@H](NC(=O)[C@H](CCCN=C(N)N)NC(=O)[C@H](CC(C)C)NC(=O)[C@H](CC(C)C)NC(=O)[C@@H](N)CCCN=C(N)N)C(=O)N[C@@H](Cc1c[nH]c2ccccc12)C(=O)N[C@@H](Cc1c[nH]c2ccccc12)C(=O)N[C@H](C(=O)N[C@@H](CCCN=C(N)N)C(=O)N[C@H](C(=O)N[C@@H](CC(C)C)C(=O)N[C@@H](CCCN=C(N)N)C(N)=O)C(C)C)[C@@H](C)CC [RLLRIWWIRVLR] | 7.44 µM (≈ 12.5 µg/mL) | 14.9 µM (≈ 25 µg/mL) | 7.44 µM (≈ 12.5 µg/mL) | 3.72 µM (≈ 6.25 µg/mL) | 3.72 µM (≈ 6.25 µg/mL) | 1.86 µM (≈ 3.13 µg/mL) |  |  |  |  |  |
| CC[C@H](C)[C@H](NC(=O)CNC(=O)[C@H](CO)NC(=O)[C@H](CC(C)C)NC(=O)[C@@H](NC(=O)CN)[C@@H](C)CC)C(=O)N[C@@H](CC(C)C)C(=O)NCC(=O)N[C@H](C(=O)NCC(=O)N[C@@H](CCCCN)C(=O)N[C@@H](CCSC)C(=O)N[C@@H](CC(C)C)C(=O)N[C@H](C(=O)N[C@H]1CSSC[C@@H](C(=O)O)NC(=O)[C@H](CC(C)C)NC(=O)CNC(=O)[C@H](CO)NC(=O)[C@H](CC(C)C)NC(=O)CNC1=O)C(C)C)C(C)C [GILSGILGVGKMLVCGLSGLC] |  |  |  |  |  |  | 4.32 µM (≈ 8.59 µg/mL) | 8.64 µM (≈ 17.2 µg/mL) | 4.32 µM (≈ 8.59 µg/mL) | 4.32 µM (≈ 8.59 µg/mL) |  |
| C[C@H](NC(=O)[C@H](C)NC(=O)[C@H](Cc1ccccc1)NC(=O)[C@H](C)NC(=O)[C@H](C)NC(=O)[C@H](Cc1ccccc1)NC(=O)[C@H](C)NC(=O)[C@H](C)NC(=O)[C@H](Cc1ccccc1)NC(=O)[C@H](C)NC(=O)[C@H](C)NC(=O)[C@H](CCCCN)NC(=O)[C@H](CCCCN)NC(=O)[C@H](CCCCN)NC(=O)[C@H](CCCCN)NC(=O)[C@H](CCCCN)NC(=O)[C@@H](N)CCCCN)C(N)=O [KKKKKKAAFAAFAAFAA] |  |  |  |  |  |  | > 32 µM |  |  | 16 µM (≈ 28.7 µg/mL) | MIC [12]: 8 µM (≈ 14.4 µg/mL); MIC [13]: 16 µM (≈ 28.7 µg/mL); MIC (Escherichia coli UB1005): 2 µM (≈ 3.59 µg/mL); MIC [14]: > 32 µM; MIC [15]: 16 µM (≈ 28.7 µg/mL) |
| CC[C@H](C)[C@H](NC(=O)CN)C(=O)N[C@@H](CC(C)C)C(=O)NCC(=O)N[C@@H](CC(N)=O)C(=O)N[C@H](C(=O)N[C@H](C(=O)NCC(=O)N[C@@H](CCSC)C(=O)NCC(=O)N[C@@H](CCCCN)C(=O)N[C@@H](CCCCN)C(=O)N[C@H](C(=O)N[C@H](C(=O)N[C@H]1CSSC[C@@H](C(=O)O)NC(=O)[C@H](CC(C)C)NC(=O)CNC(=O)[C@H](CO)NC(=O)[C@H](CC(C)C)NC(=O)CNC1=O)C(C)C)[C@@H](C)CC)C(C)C)[C@@H](C)CC [GILGNIVGMGKKIVCGLSGLC] |  |  |  |  |  |  | 3.05 µM (≈ 6.19 µg/mL) | 6.1 µM (≈ 12.4 µg/mL) | 1.53 µM (≈ 3.1 µg/mL) | 3.05 µM (≈ 6.19 µg/mL) |  |
| CC[C@H](C)[C@H](N)C(=O)N[C@@H](CC(N)=O)C(=O)N1CCC[C@H]1C(=O)N[C@@H](Cc1ccccc1)C(=O)N[C@H](C(=O)N[C@@H](C)C(=O)NCC(=O)N[C@H](C(=O)N[C@@H](C)C(=O)N[C@@H](C)C(=O)N[C@@H](CCC(=O)O)C(=O)N[C@@H](CCSC)C(=O)N[C@@H](CCSC)C(=O)N[C@@H](CCC(N)=O)C(=O)N[C@@H](Cc1cnc[nH]1)C(=O)N[C@H](C(=O)N[C@@H](Cc1ccc(O)cc1)C(=O)N[C@H]1CSSC[C@@H](C(=O)O)NC(=O)[C@H](CCCCN)NC(=O)[C@H](CCCCN)NC(=O)[C@H](CO)NC(=O)[C@H](C)NC(=O)[C@H](C)NC1=O)C(C)C)C(C)C)C(C)C [INPFVAGVAAEMMQHVYCAASKKC] |  |  |  |  |  |  | 3.35 µM (≈ 8.59 µg/mL) | 3.35 µM (≈ 8.59 µg/mL) | 3.35 µM (≈ 8.59 µg/mL) | 3.35 µM (≈ 8.59 µg/mL) |  |
| CC[C@H](C)[C@H](NC(=O)CN)C(=O)N[C@@H](Cc1ccccc1)C(=O)N[C@@H](CO)C(=O)N[C@@H](CCCCN)C(=O)N[C@H](C(=O)N[C@@H](CO)C(=O)NCC(=O)N[C@@H](CCCCN)C(=O)N[C@@H](C)C(=O)N[C@H](C(=O)N[C@@H](CCCCN)C(=O)N[C@@H](CC(N)=O)C(=O)N[C@@H](CC(C)C)C(=O)N[C@@H](Cc1ccccc1)C(=O)N[C@H](C(=O)N[C@@H](CCCCN)C(=O)NCC(=O)N[C@@H](C)C(=O)N[C@@H](CCCCN)C(=O)N[C@@H](CC(N)=O)C(=O)N[C@H](C(=O)NCC(=O)N[C@@H](CCCCN)C(=O)N[C@@H](CCCN=C(N)N)C(=O)N[C@H](C(=O)NCC(=O)N[C@@H](CCSC)C(=O)N[C@@H](CC(=O)O)C(=O)N[C@H](C(=O)N[C@H](C(=O)N[C@@H](CCCN=C(N)N)C(=O)N[C@H](C(=O)NCC(=O)N[C@@H](CCSC)C(=O)N[C@@H](CC(=O)O)C(=O)N[C@H](C(=O)N[C@H](C(=O)NCC(=O)N[C@H]1CSSC[C@@H](C(=O)O)NC(=O)[C@H](CCC(=O)O)NC(=O)CNC(=O)[C@H](CCCCN)NC(=O)[C@H]([C@@H](C)CC)NC(=O)[C@H](CCCCN)NC1=O)C(C)C)C(C)C)[C@@H](C)O)C(C)C)C(C)C)C(C)C)C(C)C)[C@@H](C)CC)[C@@H](C)CC)[C@@H](C)CC [GIFSKISGKAIKNLFIKGAKNVGKRVGMDVVRTGMDVVGCKIKGEC] |  |  |  |  |  |  | 2.27 µM (≈ 11 µg/mL) | 2.27 µM (≈ 11 µg/mL) | 2.27 µM (≈ 11 µg/mL) | 1.13 µM (≈ 5.5 µg/mL) |  |
| CC(C)[C@H](N)C(=O)N[C@H](C(=O)N[C@@H](CCCCN)C(=O)N[C@@H](CS)C(=O)N[C@@H](CO)C(=O)N[C@@H](Cc1ccc(O)cc1)C(=O)N[C@@H](CCCN=C(N)N)C(=O)N[C@@H](CCC(N)=O)C(=O)NCC(=O)N[C@@H](CO)C(=O)N1CCC[C@H]1C(=O)N[C@@H](CC(=O)O)C(=O)N[C@@H](CO)C(=O)N[C@@H](CCCN=C(N)N)C(=O)O)C(C)C [VVKCSYRQGSPDSR] |  |  |  |  |  |  | > 126 µM | ≥ 126 µM | ≥ 126 µM | > 126 µM |  |
